Data reported in patent US11285226B2, “Aryl ethene derivative and pharmaceutical composition containing same as active ingredient” (priority 2016, dated 2022).
Like-named read-outs stand apart in the source and are kept apart here.

Columns and labels:
CYP1A2 = CYP1A2 (Homo sapiens (Human), UniProt P05177); experiment: Cytochrome P450 activity inhibition, CYP1A2; assay type: in vitro ADME; conditions: 10 μM, human liver microsomes
Source text: (§1) 1) Cytochrome P450 (CYP450) Activity Inhibition Evaluation

CYP2C19 = CYP2C19 (Homo sapiens (Human), UniProt P33261); experiment: Cytochrome P450 activity inhibition, CYP2C19; assay type: in vitro ADME; conditions: 10 μM, human liver microsomes
Source text: as §1

[1] = assay type: in vitro ADME, dog; conditions: 1 μM, 30 minutes, 37° C.
Method: 2) Microsomal Stability Evaluation
(§2) Four liver microsomes (Human, Dog, Rat, Mouse 0.5 mg/ml) with a 0.1 M phosphate buffer solution (pH 7.4), and the arylethene derivative of the present invention were added to a concentration of 1 μM, culturing was performed at 37° C. for 5 minutes in advance, a NADPH regeneration system solution was added thereto, and culturing was performed at 37° C. for 30 minutes. Thereafter, in order to complete the reaction, an acetonitrile solution containing an internal standard material (chlorpropamide) was added thereto, centrifugation (14,000 rpm, 4° C.) was performed for 5 minutes, and a supernatant was injected into a LC-MS/MS system to analyze the substrate drug, thereby evaluating metabolism stability to the arylethene derivative of the present invention.

ERR alpha LBD = ERR alpha LBD (Homo sapiens (Human), UniProt P11474); conditions: read-out: Binding Assay, IC50 ERRα
Method: (§3) The arylethene derivative of the present invention was sequentially added to a 384 well plate from a concentration of 10 μM to a final concentration of two-fold dilution. […] After all reagents were added, a reaction was carried out with gentle shaking at 20° C. for 1 hour, and after the reaction, a binding activity was measured by a TR-FRET method.

ERRγ = assay type: cell-based; conditions: for Functional Assay, Cpds/Ref 5182: activity relative to reference compound GSK5182; for Functional Assay at 10 μM (% of control), Cpds: AD293, 24 hours
Method: AD293 was cultured in a 24-well plate for 24 hours, using a DMEM High glucose culture medium (Hyclone, USA) to which 0.5% FBS was added at a concentration of 9×10^4/well. The culture medium was replaced with a DMEM High glucose culture medium to which 10% FBS was added, treatment was performed with a mixture of a TransIT-LT1 transfection reagent (Minis, USA) and pCMX-Gal4-ERRγ, pFR-luciferase reporter plasmid, pCMV-β-gal, and culturing was performed for 24 hours. Thereafter, a luciferase activity assay and a β-gal assay were performed, respectively, with a lysate obtained after treatment with the arylethene derivative of the present invention for 24 hours. All results were derived from three or more independent repetitive experiments.

CYP2C9 = CYP2C9 (Homo sapiens (Human), UniProt P11712); experiment: Cytochrome P450 activity inhibition, CYP2C9; assay type: in vitro ADME; conditions: 10 μM, human liver microsomes
Source text: as §1

CYP2D6 = CYP2D6 (Homo sapiens (Human), UniProt P10635); experiment: Cytochrome P450 activity inhibition, CYP2D6; assay type: in vitro ADME; conditions: 10 μM, human liver microsomes
Source text: as §1

CYP3A4 = CYP3A4 (Homo sapiens (Human), UniProt P08684); experiment: Cytochrome P450 activity inhibition, CYP3A4; assay type: in vitro ADME; conditions: 10 μM, human liver microsomes
Method: Thereafter, in order to complete the reaction, an acetonitrile solution containing an internal standard material (Terfenadine) was added thereto, centrifugation (14,000 rpm, 4° C.) was performed for 5 minutes, and a supernatant was injected into a LC-MS/MS system to analyze the metabolites of the substrate drug, thereby evaluating drug metabolism enzyme inhibition by the arylethene derivative of the present invention.

[2] = assay type: in vitro ADME, human; conditions: 1 μM, 30 minutes, 37° C.
Method: 2) Microsomal Stability Evaluation
as §2

[3] = assay type: in vitro ADME, rat; conditions: 1 μM, 30 minutes, 37° C.
Method: 2) Microsomal Stability Evaluation
as §2

[4] = assay type: in vitro ADME, mouse; conditions: 1 μM, 30 minutes, 37° C.
Method: 2) Microsomal Stability Evaluation
as §2

[5] = assay type: in vitro ADME; conditions: PBS pH 7.4, 25° C., 5 hours
Method: 3) Parallel Artificial Membrane Permeability Assay (PAMPA) Evaluation
PAMPA is a method which has been developed for testing cell membrane permeability of a material in a test tube, and has been performed using a lipid tri-layer PVDF membrane available from Corning Gentest (NY, US), the used reagents were all purchased from Sigma (MO, US). First, a test material is diluted in PBS (pH 7.4) to a final concentration of 10 mM, 300 mL of the solution is added to the bottom well of a 96-transwell equipped with a PVDF membrane, and 200 mL of PBS is added to the upper well. Then, a plate is reacted at 25° C. for 5 hours, 20 mL of the solution in each well is transferred to a new container, and 80 mL of acetonitrile containing an internal standard material (4 mM chloropropamide) is added thereto. A concentration of the material in the solution is analyzed using LC-MS/MS (ThermoFisher Scientific, MO, US), and the transmittance of the material is calculated according to the equation reported in the reference document. • Reference document: A novel design of artificial membrane for improving the PAMPA model.

[6] = target: ER alpha ligand-binding domain (LBD) (Homo sapiens (Human), UniProt P03372); conditions: beta-estradiol 4 nM as agonist; read-out: Binding Assay, IC50 ERα
Method: as §3

[7] = assay type: in vivo; conditions: rat; for BA: PO 10 mg/kg vs IV 1 mg/kg
Method: An oral administration group fasts the day before.
Blood of each animal is collected at 0 hour.
Into a tail vein of an intravenous administration group (IV), a drug is injected at a dose of 1 mg/kg (syringe).
To an oral administration group (PO), a drug is orally administered at a dose of 10 mg/kg (oral zondec)
After administration, blood of the intravenous administration group was collected through a jugular vein 8 times at 0.08, 0.25, 0.5, 1, 2, 4, 6, and 8 hours. One collected blood amount is 400 to 500 ul.
After administration, blood of the oral administration group was collected through a jugular vein 6 times at 0.25, 0.5, 1, 4, 6 and 8 hours. One collected blood amount is 400 to 500 ul.
Supernatant plasma is collected by a centrifuge.
The supernatant plasma was injected into a LC-MS/MS system and the drug is analyzed.

CAL-62 cells = experiment: 125I uptake assay in anaplastic thyroid cancer cells; assay type: cell-based
pERK1/2 in CAL62 cells = experiment: Western blot, phosphorylated ERK1/2 (MAP kinase); assay type: cell-based; conditions: selective MEK inhibitor
ATC mouse tumor model = conditions: cited from earlier work

Sequence of ERR alpha LBD (P11474 193-421, species assumed): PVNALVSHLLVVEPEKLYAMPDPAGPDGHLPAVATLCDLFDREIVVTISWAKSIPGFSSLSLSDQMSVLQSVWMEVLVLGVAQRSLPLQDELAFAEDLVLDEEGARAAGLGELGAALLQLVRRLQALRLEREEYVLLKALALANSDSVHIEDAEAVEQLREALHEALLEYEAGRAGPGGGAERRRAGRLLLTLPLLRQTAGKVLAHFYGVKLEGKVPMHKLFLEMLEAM
Sequence of CYP2C19 (P33261 whole entry): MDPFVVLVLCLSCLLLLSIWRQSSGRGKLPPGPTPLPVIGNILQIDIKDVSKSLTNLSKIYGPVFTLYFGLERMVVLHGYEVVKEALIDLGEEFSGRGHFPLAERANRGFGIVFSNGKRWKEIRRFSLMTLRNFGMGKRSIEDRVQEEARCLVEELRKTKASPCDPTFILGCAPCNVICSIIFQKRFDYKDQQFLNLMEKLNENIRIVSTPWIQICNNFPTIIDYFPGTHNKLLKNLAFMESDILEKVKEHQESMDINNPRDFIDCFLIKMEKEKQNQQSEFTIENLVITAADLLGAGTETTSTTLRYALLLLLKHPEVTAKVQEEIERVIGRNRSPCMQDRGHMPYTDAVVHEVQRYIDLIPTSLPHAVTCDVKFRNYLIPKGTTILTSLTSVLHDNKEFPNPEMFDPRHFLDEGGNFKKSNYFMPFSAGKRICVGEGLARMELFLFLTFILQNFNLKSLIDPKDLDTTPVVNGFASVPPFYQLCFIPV
Sequence of CYP2C9 (P11712 whole entry): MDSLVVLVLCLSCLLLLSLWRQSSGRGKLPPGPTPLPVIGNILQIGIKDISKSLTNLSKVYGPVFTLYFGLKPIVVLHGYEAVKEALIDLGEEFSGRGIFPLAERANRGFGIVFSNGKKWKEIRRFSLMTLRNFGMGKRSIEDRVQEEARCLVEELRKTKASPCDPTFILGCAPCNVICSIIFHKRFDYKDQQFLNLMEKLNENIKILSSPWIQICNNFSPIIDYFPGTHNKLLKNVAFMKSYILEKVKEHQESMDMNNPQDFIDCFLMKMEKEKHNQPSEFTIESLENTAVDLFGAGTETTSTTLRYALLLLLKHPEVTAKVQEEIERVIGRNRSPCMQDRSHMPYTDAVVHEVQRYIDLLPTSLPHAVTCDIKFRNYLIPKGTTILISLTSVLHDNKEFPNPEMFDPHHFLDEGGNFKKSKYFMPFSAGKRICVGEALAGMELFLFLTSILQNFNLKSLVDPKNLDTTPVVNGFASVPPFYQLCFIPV
Sequence of CYP1A2 (P05177 whole entry): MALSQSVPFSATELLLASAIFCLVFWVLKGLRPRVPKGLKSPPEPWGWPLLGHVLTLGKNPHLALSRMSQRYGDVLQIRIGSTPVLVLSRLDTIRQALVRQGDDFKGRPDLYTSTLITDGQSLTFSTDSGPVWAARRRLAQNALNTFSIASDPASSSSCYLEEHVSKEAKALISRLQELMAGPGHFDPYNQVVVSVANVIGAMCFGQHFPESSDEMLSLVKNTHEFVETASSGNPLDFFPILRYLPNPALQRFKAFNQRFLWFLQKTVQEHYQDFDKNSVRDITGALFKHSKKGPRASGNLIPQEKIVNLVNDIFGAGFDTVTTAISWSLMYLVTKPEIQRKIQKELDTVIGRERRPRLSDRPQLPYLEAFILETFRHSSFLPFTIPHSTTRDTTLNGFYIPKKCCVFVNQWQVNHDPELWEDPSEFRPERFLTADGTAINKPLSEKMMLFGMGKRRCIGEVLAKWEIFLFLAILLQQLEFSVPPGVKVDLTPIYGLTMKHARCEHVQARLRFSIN
Sequence of CYP2D6 (P10635 whole entry): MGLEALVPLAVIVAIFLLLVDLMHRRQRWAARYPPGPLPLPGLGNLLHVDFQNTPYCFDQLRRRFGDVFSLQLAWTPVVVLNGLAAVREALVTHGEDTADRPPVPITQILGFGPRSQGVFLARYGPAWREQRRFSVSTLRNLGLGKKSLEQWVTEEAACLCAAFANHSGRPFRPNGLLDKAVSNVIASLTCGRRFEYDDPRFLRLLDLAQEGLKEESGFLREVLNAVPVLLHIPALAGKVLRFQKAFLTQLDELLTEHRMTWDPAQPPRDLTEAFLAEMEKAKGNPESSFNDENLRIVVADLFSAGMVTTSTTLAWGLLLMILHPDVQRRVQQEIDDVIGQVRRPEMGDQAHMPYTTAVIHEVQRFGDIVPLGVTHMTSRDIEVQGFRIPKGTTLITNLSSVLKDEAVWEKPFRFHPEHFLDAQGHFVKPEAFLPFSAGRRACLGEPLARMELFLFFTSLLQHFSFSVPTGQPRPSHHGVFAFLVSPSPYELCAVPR
Sequence of CYP3A4 (P08684 whole entry): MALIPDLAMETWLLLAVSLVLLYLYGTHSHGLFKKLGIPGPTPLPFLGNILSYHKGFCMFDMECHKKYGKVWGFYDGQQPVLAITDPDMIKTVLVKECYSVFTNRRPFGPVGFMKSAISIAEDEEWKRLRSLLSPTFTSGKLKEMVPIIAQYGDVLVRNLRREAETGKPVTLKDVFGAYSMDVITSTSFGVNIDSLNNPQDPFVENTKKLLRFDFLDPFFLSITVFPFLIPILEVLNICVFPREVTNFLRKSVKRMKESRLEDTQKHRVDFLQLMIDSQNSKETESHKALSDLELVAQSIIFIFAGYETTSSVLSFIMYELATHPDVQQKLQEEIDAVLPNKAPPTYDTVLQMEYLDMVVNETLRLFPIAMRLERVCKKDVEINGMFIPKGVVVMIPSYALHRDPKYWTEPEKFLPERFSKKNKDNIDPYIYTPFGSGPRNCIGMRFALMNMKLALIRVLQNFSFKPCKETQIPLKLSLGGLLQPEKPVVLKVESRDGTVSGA
Sequence of ER alpha ligand-binding domain (LBD) (P03372 whole entry, looked up, the tested form may be a part): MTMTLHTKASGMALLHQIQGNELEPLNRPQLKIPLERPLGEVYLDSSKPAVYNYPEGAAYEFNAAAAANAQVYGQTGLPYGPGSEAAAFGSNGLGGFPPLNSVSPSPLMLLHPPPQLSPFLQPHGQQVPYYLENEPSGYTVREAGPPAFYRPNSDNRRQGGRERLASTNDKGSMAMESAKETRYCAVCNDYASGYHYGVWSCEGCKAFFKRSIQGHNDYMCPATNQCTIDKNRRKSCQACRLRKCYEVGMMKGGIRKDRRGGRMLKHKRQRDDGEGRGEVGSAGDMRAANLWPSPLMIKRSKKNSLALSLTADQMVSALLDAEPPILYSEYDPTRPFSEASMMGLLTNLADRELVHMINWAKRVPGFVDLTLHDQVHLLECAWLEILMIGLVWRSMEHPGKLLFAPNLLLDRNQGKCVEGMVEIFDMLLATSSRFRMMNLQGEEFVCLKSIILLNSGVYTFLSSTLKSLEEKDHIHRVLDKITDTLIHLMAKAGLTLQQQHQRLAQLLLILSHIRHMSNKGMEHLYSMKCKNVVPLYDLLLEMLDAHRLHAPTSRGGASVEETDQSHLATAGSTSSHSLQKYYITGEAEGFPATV

Compound	CYP inhibition (% of control) 1A2 (CYP1A2)	CYP inhibition (% of control) 2C19 (CYP2C19)	Functional Assay, Cpds/Ref 5182 (ERRγ)	CYP inhibition (% of control) 2C9 (CYP2C9)	MS (Microsomal Stability) (%) human [2]	MS (Microsomal Stability) (%) rat [3]	other results
OCCC/C(=C(\c1ccc(O)cc1)c1ccc(N2CCN(C3CCCC3)CC2)cc1)c1ccccc1 [Compound 22n]	99 % of control	83 % of control					MS (Microsomal Stability) (%) dog [1]: 72.0%
OCCC/C(=C(\c1ccc(O)cc1)c1ccc(OCCN2C[C@H]3C[C@H]3[C@H]2CO)cc1)c1ccccc1 [Compound 38d]	79.2 % of control	58.8 % of control	0.77	55.3 % of control	6.9%	11.7%	IC50 (ERR alpha LBD): > 10 µM; CYP inhibition (% of control) 2D6 (CYP2D6): 54.3 % of control; CYP inhibition (% of control) 3A4 (CYP3A4): 57.6 % of control; MS (Microsomal Stability) (%) mouse [4]: 11.8%
Cl.Cl.OCCC/C(=C(\c1ccc(O)cc1)c1ccc(OCCN2CCNCC2)cc1)c1ccccc1 [Compound 7a, (Z)-4-(5-hydroxy-2-phenyl-1-(4-(2-(piperazin-1-yl)ethoxy)phenyl)pent-1-en-1-yl)phenol 2hydrochloride Salt]			0.86		49.0%		
C[Si](C)(CN1CCCCC1)c1ccc(/C(=C(/CCCO)c2ccccc2)c2ccc(O)cc2)cc1 [Compound 42b]							Permeability Pampa [5]: 0.1 10^−6 cm/s
Cc1ccc(/C(=C(\CCCO)c2ccccc2)c2ccc(N3CCNCC3)cc2)cc1 [Compound 20b]			0.88		44%		MS (Microsomal Stability) (%) dog [1]: 58%
CN1CCN(c2ccc(/C(=C(/CCCO)c3ccccc3)c3ccc(Br)cc3)cc2)CC1 [Compound 18e]	>100 % of control	84.6 % of control	0.89	91.3 % of control			IC50 (ERR alpha LBD): > 10 µM; IC50 [6]: > 10 µM; Functional Assay at 10 μM (% of control), Cpds (ERRγ): 2.6 % of control; CYP inhibition (% of control) 2D6 (CYP2D6): >100 % of control; CYP inhibition (% of control) 3A4 (CYP3A4): 84 % of control; Permeability Pampa [5]: 1.11 10^−6 cm/s; AUCINF ([7]; IV 1 mg/kg): 0.06 μMh; AUCall ([7]; IV 1 mg/kg): 0.06 μMh; Vss ([7]; IV 1 mg/kg): 39.1 L/kg; t1/2 ([7]; IV 1 mg/kg): 0.8 h; AUCINF ([7]; PO 10 mg/kg): 0.09 μMh; AUCall ([7]; PO 10 mg/kg): 0.07 μMh; Cmax ([7]; PO 10 mg/kg): 10 nM; Tmax ([7]; PO 10 mg/kg): 2.8 h; BA [7]: 11.5%
[K+].[O-][Cl+3]([O-])([O-])[O-] [KClO4, reference compound]							block of radioactive iodine uptake increased in compound 18a-treated cells (CAL-62 cells; co-incubated with compound 18a-treated CAL62 cells): completely blocks
Cc1ccc(/C(=C(\CCCO)c2ccccc2)c2ccc(C3CCNCC3)cc2)cc1 [Compound 20k]						89.0%	
Cc1ccc(/C(=C(\CCCO)c2ccccc2)c2ccc(N3CCN(C(C)C)CC3)cc2)cc1 [Compound 18b]			0.78			40.0%	CYP inhibition (% of control) 3A4 (CYP3A4): 53 % of control; BA [7]: 8.7%
Cc1ccc(/C(=C(\CCCO)c2ccccc2)c2ccc(C3CNC3)cc2)cc1 [Compound 20d]			0.81		83%	54%	
CC(C)N1CCC(c2ccc(/C(=C(/CCCO)c3ccccc3)c3cccc(O)c3)cc2)C1 (racemic) [Compound 22u]					40.0%		MS (Microsomal Stability) (%) dog [1]: 10.0%
COc1cccc(-c2cc(=O)c3ccccc3o2)c1N [PD98059, reference compound]							inhibition of the radioactive iodine uptake increase by compound 18a (CAL-62 cells; selective MEK inhibitor, pre-incubated 30 minutes): completely inhibited; inhibition of the relative increase of phosphorylated ERK1 and ERK2 by compound 18a (pERK1/2 in CAL62 cells): completely inhibited
CC(C)N1CCN(c2ccc(/C(=C(/CCCO)c3ccccc3)c3ccc(NS(C)(=O)=O)cc3)cc2)CC1 [Compound 27a, (E)-N-(4-(5-hydroxy-1-(4-(4-isopropylpiperazin-1-yl)phenyl)-2-phenylpent-1-en-1-yl)phenyl)methanesulfonamide]						65.0%	
CN1CCC[C@H]1COc1ccc(/C(=C(/CCCO)c2ccccc2)c2ccc(O)cc2)cc1 [Compound 6h]	103 % of control	83.2 % of control		62.8 % of control			IC50 (ERR alpha LBD): > 10 µM; CYP inhibition (% of control) 2D6 (CYP2D6): 90.7 % of control; CYP inhibition (% of control) 3A4 (CYP3A4): 75.4 % of control
CC(C)N1CCC(c2ccc(/C(=C(/CCCO)c3ccccc3)c3cccc(O)c3)cc2)CC1 [Compound 22m]	97 % of control	>100 % of control					MS (Microsomal Stability) (%) dog [1]: 55.0%
OCCC/C(=C(/c1ccc(C2CCN(C3CC3)CC2)cc1)c1cccc(O)c1)c1ccccc1 [Compound 22r]	>100 % of control	>100 % of control		>100 % of control	62.0%		
Cc1ccc(/C(=C(\CCCO)c2ccccc2)c2ccc(C3CCN(C)CC3)cc2)cc1 [Compound 22f]					97.0%	80.0%	
Nc1ccc(/C(=C(\CCCO)c2ccccc2)c2ccc(C3CCN(C4CC4)CC3)cc2)cc1 [Compound 26d]	>100 % of control	>100 % of control					Permeability Pampa [5]: 1.04 10^−6 cm/s
CCN1CCN(c2ccc(/C(=C(/CCCO)c3ccccc3)c3ccc(C)cc3)cc2)CC1 [Compound 18j]	>100 % of control	74 % of control		87 % of control			MS (Microsomal Stability) (%) dog [1]: 58.0%
N#CC(=C(/N)Sc1ccccc1N)/C(C#N)=C(\N)Sc1ccccc1N [Compound U0126, U0126]							inhibition of the relative increase of phosphorylated ERK1 and ERK2 by compound 18a (pERK1/2 in CAL62 cells): completely inhibited
CC(C)N1CCC(c2ccc(/C(=C(/CCCO)c3ccccc3)c3ccc(O)cc3)cc2)CC1 [Compound 22k]	>100 % of control	>100 % of control	0.83	97 % of control		69.0%	Functional Assay at 10 μM (% of control), Cpds (ERRγ): 0.77 % of control
OCCC/C(=C(\c1ccc(O)cc1)c1ccc(OCCN2C[C@H]3CNC[C@H]3C2)cc1)c1ccccc1 [Compound 40, 4-((Z)-1-(4-(2-((3aR,6aS)-hexahydropyrrolo[3,4-c]pyrrol-2(1H)-yl)ethoxy)phenyl)-5-hydroxy-2-phenylpent-1-en-1-yl)phenol]			0.96			72.0%	
CN(C)CCOc1ccc(/C(=C(/CCCO)c2ccccc2)c2ccc(O)cc2)cc1 [GSK5182, reference compound]	84.6 % of control	78.2 % of control		72.9 % of control			CYP inhibition (% of control) 2D6 (CYP2D6): 82.3 % of control; CYP inhibition (% of control) 3A4 (CYP3A4): 83 % of control; BA [7]: 8.4%; radioiodine uptake in the tumor (ATC mouse tumor model): not increased
